# Results: patent US10730887B2, “Compound containing tricyclic heteroaryl group” (Hangzhou Innogate Pharma Co., Ltd., priority 2016, dated 2020)
# pIC50: −log10 of the molar value.
# Target: T1, FLT3 (Homo sapiens, UniProt P36888)
# T1 sequence (P36888 27-993): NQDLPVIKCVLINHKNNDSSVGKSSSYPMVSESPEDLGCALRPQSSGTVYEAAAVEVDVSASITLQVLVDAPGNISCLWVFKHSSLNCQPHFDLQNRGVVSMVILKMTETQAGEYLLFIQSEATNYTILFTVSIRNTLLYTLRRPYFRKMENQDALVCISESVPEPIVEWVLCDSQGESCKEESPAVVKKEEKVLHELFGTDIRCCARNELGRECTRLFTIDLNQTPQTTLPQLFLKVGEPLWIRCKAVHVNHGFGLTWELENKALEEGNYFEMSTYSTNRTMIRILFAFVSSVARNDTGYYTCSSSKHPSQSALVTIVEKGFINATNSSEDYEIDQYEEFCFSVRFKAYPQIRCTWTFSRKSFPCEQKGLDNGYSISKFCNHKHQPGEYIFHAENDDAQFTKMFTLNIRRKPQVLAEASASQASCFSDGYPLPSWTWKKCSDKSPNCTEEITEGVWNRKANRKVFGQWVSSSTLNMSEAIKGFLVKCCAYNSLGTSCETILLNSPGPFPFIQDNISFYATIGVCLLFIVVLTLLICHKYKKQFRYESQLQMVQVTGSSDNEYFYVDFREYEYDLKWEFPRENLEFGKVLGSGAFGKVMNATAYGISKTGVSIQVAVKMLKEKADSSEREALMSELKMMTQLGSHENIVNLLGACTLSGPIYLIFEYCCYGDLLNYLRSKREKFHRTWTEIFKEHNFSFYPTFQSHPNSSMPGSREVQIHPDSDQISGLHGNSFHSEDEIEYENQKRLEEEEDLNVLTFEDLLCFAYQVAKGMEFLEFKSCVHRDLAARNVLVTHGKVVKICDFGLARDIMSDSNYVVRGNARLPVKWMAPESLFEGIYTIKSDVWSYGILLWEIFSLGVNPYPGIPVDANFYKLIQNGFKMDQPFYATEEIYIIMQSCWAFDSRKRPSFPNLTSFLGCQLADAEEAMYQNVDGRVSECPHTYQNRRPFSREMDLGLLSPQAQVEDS
# Experiment: FLT3 kinase activity inhibition, Caliper mobility shift assay
# Type: biochemical
# Procedure: FLT3 protein kinase activity was measured using the Caliper mobility shift assay. The compound was dissolved in DMSO and diluted with a kinase buffer (50 mM HEPES, pH 7.5, 0.0015% Brij-35, 2 mM DTT), and 5 μL of a 5-fold final concentration of the compound (10% DMSO) was added to a 384-well plate. After adding 10 μL of 2.5-fold FLT3 enzyme solution, incubate for 10 minutes at room temperature, and then add 10 μL of a 2.5-fold substrate (FAM-labeled polypeptide and ATP) solution. After incubation at 28° C. for 60 minutes, the reaction was stopped by adding 25 μL of stop solution (100 mM HEPES, 0.015% Brij-35, 0.2% Coating Reagent #3, 50 mM EDTA, pH 7.5). Conversion rate data was read on a Caliper EZ Reader II (Caliper Life Sciences). The conversion rate was converted into inhibition rate data (% inhibition rate=(max−conversion rate)/(max−min)*100). Where max is the conversion of the DMSO control and min is the conversion of the enzyme-free control Curves were plotted with compound concentration and inhibition rate on the horizontal and vertical coordinates, and the curve was fitted using XLFit excel add-in version 4.3.1 software and IC50 was calculated.
row,Structure (SMILES),pIC50
1,CCc1nc(C(N)=O)c(Nc2ccc3c(c2)OC[C@H]2CN(CC(F)(F)F)CCN32)nc1NC1CCOCC1 [Compound D3R],> 8.00
2,CCc1nc(C(N)=O)c(Nc2ccc3c(c2)OC[C@H]2CN(C4CC4)CCN32)nc1NC1CCOCC1 [Compound D4R],> 9.00
3,CCc1nc(C(N)=O)c(Nc2ccc3c(c2)OC[C@@H]2CN(C)CC(=O)N32)nc1NC1CCOCC1 [Compound D5S],> 8.00
